From patent US7235674B2, “Substituted coumarins and quinolines and analogs as activators of caspases and inducers of apoptosis and the use thereof” (Cytovia, Inc., priority 2001, dated 2007)

Legend:
[1] = tested on: Human breast cancer cell line ZR-75-1; assay: Caspase cascade activation assay (N-(Ac-DEVD)-N'-ethoxycarbonyl-R110 fluorogenic substrate) in ZR-75-1 cells; type: cell-based; settings: for maximal fold induction: ZR-75-1, 24 h, read-out: Max efficacy ZR751; for Caspase activity (Ratio) ZR-75-1: ratio of net RFU of test compound to control, 3 h substrate reading
Protocol: (§1) Human breast cancer cell lines T-47D and ZR-75-1 were grown according to media component mixtures designated by American Type Culture Collection +10% FCS (Invitrogen Corporation), in a 5% CO2 −95% humidity incubator at 37° C. T-47D and ZR-75-1 cells were maintained at a cell density between 30 and 80% confluency at a cell density of 0.1 to 0.6×10^6 cells/mL. Cells were harvested at 600×g and resuspended at 0.65×10^6 cells/mL into appropriate media +10% FCS. An aliquot of 45 μl of cells was added to a well of a 96-well microtiter plate containing 5 μl of a 10% DMSO in RPMI-1640 media solution containing 0.16 to 10 μM of 3-cyano-7-methoxy-4-(3-bromo-4,5-dimethoxyphenyl)-2-oxo-2H-chromene (Example 1) or other test compound (0.016 to 1 μM final). An aliquot of 45 μl of cells was added to a well of a 96-well microtiter plate containing 5 μl of a 10% DMSO in RPMI-1640 media solution without test compound as the control sample. The samples were mixed by agitation and then incubated at 37° C. for 24 h in a 5% CO2 −95% humidity incubator. After incubation, the samples were removed from the incubator and 50 μl of a solution containing 20 μM of N-(Ac-DEVD)-N′-ethoxycarbonyl-R110 fluorogenic substrate (SEQ ID NO:1) (Cytovia, Inc.; WO99/18856), 20% sucrose (Sigma), 20 mM DTT (Sigma), 200 mM NaCl (Sigma), 40 mM Na PIPES buffer pH 7.2 (Sigma), and 500 μg/ml lysolecithin (Calbiochem) was added. The samples were mixed by agitation and incubated at room temperature. Using a fluorescent plate reader (Model 1420 Wallac Instruments), an initial reading (T=0) was made approximately 1-2 min after addition of the substrate solution, employing excitation at 485 nm and emission at 530 nm, to determine the background fluorescence of the control sample. After the 3 h incubation, the samples were read for fluorescence as above (T=3 h).
(§2) The Relative Fluorescence Unit values (RFU) were used to calculate the sample readings as follows: RFU(T=3 h)−Control RFU(T=0)=Net RFU(T=3 h)
(§3) The activity of caspase cascade activation was determined by the ratio of the net RFU value for 3-cyano-7-methoxy-4-(3-bromo-4,5-dimethoxy-phenyl)-2-oxo-2H-chromene, or other test compound, to that of control samples. The EC50 (nM) was determined by a sigmoidal dose-response calculation (Prism 2.0, GraphPad Software Inc.).

[2] = tested on: Human breast cancer cell line T-47D; assay: Caspase cascade activation assay (N-(Ac-DEVD)-N'-ethoxycarbonyl-R110 fluorogenic substrate) in T-47D cells; type: cell-based; settings: for Caspase activity (Ratio) T-47D: ratio of net RFU of test compound to control, 3 h substrate reading
Protocol: as §1, §2, §3

[3] = Homo sapiens, commercial fused-pyridine compounds, ZR751 cells
[4] = Homo sapiens, ZR-75-1, commercial fused-pyridine compounds, ZR751 cells
[5] = commercial fused-pyridine compounds, T47D cells
[6] = Homo sapiens, caspase cascade activation potency, ZR-75-1 cells, 24 h incubation
[7] = Homo sapiens, T47D, caspase cascade activation potency, T-47D cells, 24 h incubation
[8] = caspase cascade activation potency, ZR-75-1 cells, 24 h incubation
[9] = caspase cascade activation potency, T-47D cells, 24 h incubation

Row | Structure (SMILES) | EC50 [1, 6] [nM] | Caspase activity (Ratio) ZR-75-1 ([1]; ZR-75-1 cells, 24 h incubation) | EC50 [2, 7] [nM] | Caspase activity (Ratio) T-47D ([2]; T-47D cells, 24 h incubation) | also measured
1 | COc1ccc(-c2c(C#N)c(N)nc3c2CCc2ccccc2-3)cc1OC [compound 45] |  |  |  |  | maximal fold induction [1, 3]: 7; EC50 [1, 4]: 571 nM; EC50 (nM) T47D [2, 5]: Inactive; Max efficacy T47D [2, 5]: Inactive
2 | COc1ccc(-c2c(C#N)c(N)nc3c2CCCC3C)cc1 (stereo not shown) [compound 49] |  |  |  |  | maximal fold induction [1, 3]: 4.8; EC50 [1, 4]: 5710 nM; EC50 (nM) T47D [2, 5]: Inactive; Max efficacy T47D [2, 5]: Inactive
3 | COc1cc(OC)cc(C2=c3ccc4c(c3OC(=O)C2C#N)C=CN=4)c1 (stereo not shown) [Example 16, 4-(3,5-Dimethoxyphenyl)-3-cyano-2-oxo-2H-pyrrolo[2,3-h]chromene] | 174 | 3.6 | 106 | 3.1 | 
4 | COc1cc(-c2c(C#N)c(=O)oc3cc(N)ccc23)cc(Br)c1OC [Example 18, 7-Amino-4-(3-bromo-4,5-dimethoxyphenyl)-3-cyano-2-oxo-2H-chromene] | 320 | 7.1 | 1490 | 2.2 | 
5 | COc1ccc2c(-c3cc(Br)c(OC)c(OC)c3)c(C#N)c(=O)oc2c1 [Example 1, 3-Cyano-7-methoxy-4-(3-bromo-4,5-dimethoxyphenyl)-2-oxo-2H-chromene] | 97 | 4.2 | 257 | 6.2 | 
6 | COc1cc(-c2c(C#N)c(=O)oc3c2ccc2c3ccn2C)cc2c1OCO2 [Example 40, 3-Cyano-4-(3-methoxy-4,5-methylenedioxyphenyl)-7-methyl-2-oxo-2H-pyrrolo[2,3-h]chromene] | 24 | 4.9 | > 100 | 1.7 | 
7 | COc1cccc(-c2c(C#N)c(=O)[nH]c3cc(Cl)ccc23)c1 [Example 8, 7-Chloro-3-cyano-4-(3-methoxy-phenyl)-quinolin-1H-2-one] |  | 10.1 |  | 4.1 | EC50 [1, 8]: 878 nM; EC50 [2, 9]: 1170 nM
8 | Cn1ccc2c3oc(=O)c(C#N)c(-c4cccc([N+](=O)[O-])c4)c3ccc21 [Example 38, 3-Cyano-7-methyl-4-(3-nitro-phenyl)-2-oxo-2H-pyrrolo[2,3-h]chromene] | 22 | 5.0 | > 100 | 1.8 | 
9 | COc1ccccc1-c1c(C#N)c(N)nc2c1CCc1ccccc1-2 [compound 44] |  |  |  |  | maximal fold induction [1, 3]: 19.2; EC50 [1, 4]: 2040 nM; maximal fold induction ([2]; Homo sapiens, 24 h, commercial fused-pyridine compounds, T47D cells, read-out: Max efficacy T47D): 10.7; EC50 ([2]; Homo sapiens, commercial fused-pyridine compounds, T47D cells): 3120 nM
10 | COc1cccc(C2=c3ccc4c(c3OC(=O)C2C#N)C=CN=4)c1 (stereo not shown) [Example 5, 3-Cyano-4-(3-methoxyphenyl)-2-oxo-2H-pyrrolo[2,3-h]chromene] | 111 | 10.4 | 200 | 2.0 | 
11 | COc1cc(-c2c(C#N)c(=N)oc3cc(N(C)C)ccc23)cc(Br)c1OC [Example 31, 2-Imino-3-cyano-7-dimethylamino-4-(3-bromo-4,5-dimethoxyphenyl)-2H-chromene] |  |  | 2500 |  | 
12 | N#Cc1c(-c2ccccc2)c2ccccc2[nH]c1=O [Example 6, 3-Cyano-4-phenyl-quinolin-1H-2-one] |  | 10.6 |  | 9.1 | EC50 [1, 8]: 882 nM; EC50 [2, 9]: 4800 nM
13 | COc1cc(-c2c(C#N)c(=O)oc3cc(Cl)ccc23)cc(Br)c1OC [Example 28, 4-(3-Bromo-4,5-dimethoxy-phenyl)-7-chloro-3-cyano-2-oxo-2H-chromene] |  |  | 2960 | 2.2 | 
14 | COc1cc(OC)cc(-c2c(C#N)c(=O)oc3cc(OC)ccc23)c1 [Example 2, 3-Cyano-7-methoxy-4-(3,5-dimethoxyphenyl)-2-oxo-2H-chromene] | 11 | 5.4 | 44 | 4.1 | 
15 | COc1ccc(-c2c(C#N)c(N)nc3c2CN(C)CC3)cc1OC [compound 50] |  |  |  |  | maximal fold induction [1, 3]: 2.4; EC50 [1, 4]: 576 nM; EC50 (nM) T47D [2, 5]: Inactive; Max efficacy T47D [2, 5]: Inactive
16 | COc1cccc(-c2c(C#N)c(=O)oc3c2ccc2c3ccn2C)c1 [Example 41, 3-Cyano-4-(3-methoxy-phenyl)-7-methyl-2-oxo-2H-pyrrolo[2,3-h]chromene] | 22 | 4.9 | 55 | 2.3 | 
17 | C=CCNc1nc2nc(N)c(C#N)c(-c3ccc(Br)cc3)c2s1 [compound 48] |  |  |  |  | maximal fold induction [1, 3]: 2.9; EC50 [1, 4]: 6040 nM; EC50 (nM) T47D [2, 5]: Inactive; Max efficacy T47D [2, 5]: Inactive
18 | CNc1ccc2c(-c3cc(Br)c(OC)c(OC)c3)c(C#N)c(=O)oc2c1 [Example 25, 4-(3-Bromo-4,5-dimethoxy-phenyl)-3-cyano-7-methylamino-2-oxo-2H-chromene] | 356 | 6.1 | 1090 | 4.9 | 
19 | COc1cc(OC)cc(-c2c(C#N)c(=O)oc3c2ccc2c3ccn2C)c1 [Example 39, 3-Cyano-4-(3,5-dimethoxy-phenyl)-7-methyl-2-oxo-2H-pyrrolo[2,3-h]chromene] | 20 | 5.2 | > 100 | 1.9 | 
20 | N#Cc1c(N)nc2c(c1-c1cccs1)CCCC2 [compound 46] |  |  |  |  | maximal fold induction [1, 3]: 3.1; EC50 [1, 4]: 3410 nM; EC50 (nM) T47D [2, 5]: Inactive; Max efficacy T47D [2, 5]: Inactive
21 | COc1ccc(OC)c(C2=c3ccc4c(c3OC(=O)C2C#N)C=CN=4)c1 (stereo not shown) [Example 24, 3-Cyano-4-(2,5-dimethoxyphenyl)-2-oxo-2H-pyrrolo[2,3-h]chromene] | 405 | 7.1 | 585 | 4.5 | 
22 | Cn1ccc2c3oc(=O)c(C#N)c(-c4cccc(Br)c4)c3ccc21 [Example 42, 3-Cyano-4-(3-bromo-phenyl)-7-methyl-2-oxo-2H-pyrrolo[2,3-h]chromene] | 17 | 4.2 | 56 | 2.6 | 
23 | COc1cccc(-c2c(C#N)c(=O)oc3cc(OC)ccc23)c1 [Example 17, 3-Cyano-4-(3-methoxy-phenyl)-7-methoxy-2-oxo-2H-chromene] | 43.4 | 11.7 | 99.7 | 8.9 | 
24 | COc1cc(-c2cc3c(c4c2=C(C#N)C(=O)O4)OC(C)(C)CC=3)cc(Br)c1OC [Example 20, 4-(3-Bromo-4,5-dimethoxyphenyl)-3-cyano-7,8-dihydro-8,8-dimethyl-2-oxo-2H-furo[3,2-h]chromene] | 1000 | 3.1 |  | 1.6 | EC50 (nM) T-47D [2, 9]: Inactive
25 | COc1cc(-c2c(C#N)c(N)nc3c2CCc2ccccc2-3)cc(Br)c1OC [Example 19, 2-Amino-4-(3-bromo-4,5-dimethoxyphenyl)-3-cyano-5,6-dihydro-benzo[h]quinoline] | 556 | 7.9 | 4060 | 5.4 | 
26 | COc1ccc2c(-c3cc(Br)c(OC)c(OC)c3)c(C#N)c(=O)[nH]c2c1 [Example 9, 4-(3-Bromo-4,5-dimethoxy-phenyl)-3-cyano-7-methoxy-quinolin-1H-2-one] |  | 7.4 |  | 4.4 | EC50 [1, 8]: 2050 nM; EC50 [2, 9]: 4410 nM
27 | COc1cccc(-c2c(C#N)c(=N)sc3cc(OC)ccc23)c1 [Example 30, 2-Imino-3-cyano-7-methoxy-4-(3′-methoxy-phenyl)-2H-thiochromene] |  | Inactive |  | Inactive | EC50 (nM) ZR-75-1 [1, 8]: Inactive; EC50 (nM) T-47D [2, 9]: Inactive
